# Test results as given in US9796733B2, “Imidazo-pyrazine derivatives useful as soluble guanylate cyclase activators” (Merck Sharp & Dohme Corp., priority 2014, dated 2017).
# Experiments:
# sGC α1/β1 heterodimer = target: T1, sGC α1/β1 heterodimer (Homo sapiens, UniProt Q02108+Q02153); test: Cell-based sGC functional assay (CASA assay): cGMP generation in CHO-K1/sGC cells, HTRF detection; settings: for Emax: CHO-K1, percent activation relative to standard Compound A in CHO-K1/sGC cells, read-out: % Act.; for EC50: inflection point (IP) of cGMP generation in CHO-K1/sGC cells, 4P fit, activity expressed as percentage of Compound A
# T1 construct: expressed in transfected cells; host or cells: CHO-K1 (clone #7, CHO-K1/sGC)
# T1 sequence (Q02108 1-690): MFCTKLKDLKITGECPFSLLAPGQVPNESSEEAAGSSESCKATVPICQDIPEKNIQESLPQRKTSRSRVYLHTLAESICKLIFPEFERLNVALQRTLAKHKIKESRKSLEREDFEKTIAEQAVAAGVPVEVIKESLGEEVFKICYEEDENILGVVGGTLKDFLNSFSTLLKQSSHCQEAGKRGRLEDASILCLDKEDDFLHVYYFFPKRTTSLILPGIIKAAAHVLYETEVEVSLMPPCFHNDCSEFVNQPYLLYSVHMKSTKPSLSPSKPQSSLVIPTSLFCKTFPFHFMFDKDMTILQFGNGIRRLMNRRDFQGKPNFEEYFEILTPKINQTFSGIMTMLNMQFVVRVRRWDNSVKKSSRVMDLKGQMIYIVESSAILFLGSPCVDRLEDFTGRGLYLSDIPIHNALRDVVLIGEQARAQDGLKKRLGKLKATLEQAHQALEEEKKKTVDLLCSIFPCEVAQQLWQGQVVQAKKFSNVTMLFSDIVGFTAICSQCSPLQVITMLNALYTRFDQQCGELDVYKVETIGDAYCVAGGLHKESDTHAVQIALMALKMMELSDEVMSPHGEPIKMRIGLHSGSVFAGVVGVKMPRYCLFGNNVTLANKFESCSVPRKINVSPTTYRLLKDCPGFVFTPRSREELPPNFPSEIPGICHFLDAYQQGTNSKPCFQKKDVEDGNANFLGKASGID
# T1 sequence (Q02153 1-619): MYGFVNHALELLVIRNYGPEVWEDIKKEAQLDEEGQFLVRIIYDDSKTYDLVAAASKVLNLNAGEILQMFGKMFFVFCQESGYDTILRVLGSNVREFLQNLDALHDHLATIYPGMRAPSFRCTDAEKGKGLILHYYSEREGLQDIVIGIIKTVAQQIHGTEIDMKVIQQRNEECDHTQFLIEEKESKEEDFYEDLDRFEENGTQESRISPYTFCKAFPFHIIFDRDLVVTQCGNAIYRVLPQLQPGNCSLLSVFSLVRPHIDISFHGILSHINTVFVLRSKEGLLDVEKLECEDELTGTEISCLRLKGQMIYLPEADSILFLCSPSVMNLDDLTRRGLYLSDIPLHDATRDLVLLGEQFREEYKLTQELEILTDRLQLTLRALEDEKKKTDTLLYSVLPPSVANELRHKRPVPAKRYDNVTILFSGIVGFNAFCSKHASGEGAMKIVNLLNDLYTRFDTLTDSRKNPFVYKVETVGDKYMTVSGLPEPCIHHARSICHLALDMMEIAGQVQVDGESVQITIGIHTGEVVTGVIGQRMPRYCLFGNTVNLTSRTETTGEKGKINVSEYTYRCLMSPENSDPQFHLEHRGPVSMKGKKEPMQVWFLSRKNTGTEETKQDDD
# Procedure, shortened: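 Stable CHO-K1/sGC cells in EBSS buffer with 5 mM MgCl2, 0.05% BSA and 0.5 mM IBMX were incubated with compound (2.5% DMSO final) ±1 μM DETA-NO for 1 hr at 37° C. cGMP was measured by HTRF. Activation is expressed as % of reference HDA Compound A maximum, with IP and max fold induction from a 4P fit.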
# [1] = system: Spontaneously hypertensive rats (SHR); test: Acute efficacy in spontaneously hypertensive rats (SHR): telemetry blood pressure lowering after a single oral dose; format: in vivo, rat
# Procedure, shortened: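 Male SHR carrying aortic telemetry implants (14-day recovery) received a single oral gavage of compound or vehicle (10% transcutol/20% Cremophor/70% water). Conscious blood pressure was sampled 30 s every 10 min and averaged hourly; change was taken against the prior-day vehicle baseline, reported as maximum peak SBP decrease at a given PO dose (mpk).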
Emax (sGC α1/β1 heterodimer),EC50 (sGC α1/β1 heterodimer),Structure (SMILES),"Maximum peak decrease of systolic blood pressure (SBP) in SHR, Cat. ([1]; P.O. 0.3 mpk)","Maximum peak decrease of systolic blood pressure (SBP) in SHR, Cat. ([1]; P.O. 0.1 mpk)","Maximum peak decrease of systolic blood pressure (SBP) in SHR, Cat. ([1]; P.O. 1.0 mpk)","Maximum peak decrease of systolic blood pressure (SBP) in SHR, Cat. ([1]; P.O. 3.0 mpk)","Maximum peak decrease of systolic blood pressure (SBP) in SHR, Cat. ([1]; P.O. 2.0 mpk)"
117%,152 nM,"CCC1(c2ccc(Cl)cc2)C(=O)Nc2nc(-c3cn4ccnc4c(CCC(F)(F)C(F)(F)F)n3)nc(N)c21 (stereo not drawn) [Example 247B, 4-amino-5-(4-chlorophenyl)-5-ethyl-2-(8-(3,3,4,4,4-pentafluorobutyl)imidazo [1,2-a]pyrazin-6-yl)-5H-pyrrolo[2,3-d]pyrimidin-6(7H)-one]",A (Category A=SBP in SHRs<20 mmHg),,,,
156%,75 nM,"Nc1nc(-c2cn3ccnc3c(CCCC(F)(F)F)n2)nc2c1C(c1ccc(F)c(F)c1)(C1CC1)C(=O)N2 (stereo not drawn) [Example 317A, 4-amino-5-cyclopropyl-5-(3,4-difluorophenyl)-2-(8-(4,4,4-trifluorobutyl)imidazo[1,2-a]pyrazin-6-yl)-5H-pyrrolo[2,3-d]pyrimidin-6(7H)-one]",,B (Category B=SBP in SHRs 20-40 mmHg),,,
84%,177 nM,"Nc1nc(-c2cn3ccnc3c(CCC(F)(F)C(F)(F)F)n2)nc2c1C(c1ccc(F)cn1)(C1CC1)C(=O)N2 (stereo not drawn) [Example 223A, 4-amino-5-cyclopropyl-5-(5-fluoropyridin-2-yl)-2-(8-(3,3,4,4,4-pentafluorobutyl)imidazo [1,2-a]pyrazin-6-yl)-5H-pyrrolo[2,3-d]pyrimidin-6(7H)-one]",,,B (Category B=SBP in SHRs 20-40 mmHg),,
89%,289 nM,"CC1(c2ccc(F)cc2)C(=O)Nc2nc(-c3cn4ccnc4c(-c4ccccc4)n3)nc(N)c21 (stereo not drawn) [Example 112A, 4-amino-5-(4-fluorophenyl)-5-methyl-2-(8-phenylimidazo[1,2-a]pyrazin-6-yl)-5H-pyrrolo[2,3-d]pyrimidin-6(7H)-one]",,,,B (Category B=SBP in SHRs 20-40 mmHg),
131%,71 nM,"CC1(c2ccc(Cl)cc2)C(=O)Nc2nc(-c3cn4ccnc4c(CCC(F)(F)C(F)(F)F)n3)nc(N)c21 (stereo not drawn) [Example 238A, 4-amino-5-(4-chlorophenyl)-5-methyl-2-(8-(3,3,4,4,4-pentafluorobutyl)imidazo [1,2-a]pyrazin-6-yl)-5H-pyrrolo[2,3-d]pyrimidin-6(7H)-one]",C (Category C=SBP in SHRs>40 mmHg),,,,
90%,114 nM,"Nc1nc(-c2cn3ccnc3c(CCC(F)(F)F)n2)nc2c1C(c1ccc(Cl)c(F)c1)(C1CC1)C(=O)N2 (stereo not drawn) [Example 190A, 4-amino-5-(4-chloro-3-fluorophenyl)-5-cyclopropyl-2-(8-(3,3,3-trifluoropropyl)imidazo[1,2-a]pyrazin-6-yl)-5H-pyrrolo[2,3-d]pyrimidin-6(7H)-one]",,,,C (Category C=SBP in SHRs>40 mmHg),
104%,434 nM,"CCc1nc(-c2nc(N)c3c(n2)NC(=O)C3(C)c2ccc(Cl)c(F)c2)cn2ccnc12 (stereo not drawn) [Example 314B, 4-amino-5-(4-chloro-3-fluorophenyl)-2-(8-ethylimidazo[1,2-a]pyrazin-6-yl)-5-methyl-5H-pyrrolo[2,3-d]pyrimidin-6(7H)-one]",,,,B (Category B=SBP in SHRs 20-40 mmHg),
96%,759 nM,"CCC1(c2ccc(F)cn2)C(=O)Nc2nc(-c3cn4ccnc4c(CCC(F)(F)C(F)(F)F)n3)nc(N)c21 (stereo not drawn) [Example 249A, 4-amino-5-ethyl-5-(5-fluoropyridin-2-yl)-2-(8-(3,3,4,4,4-pentafluorobutyl)imidazo [1,2-a]pyrazin-6-yl)-5H-pyrrolo[2,3-d]pyrimidin-6(7H)-one]",,,,B (Category B=SBP in SHRs 20-40 mmHg),
151%,369 nM,"CC1(c2ccc(Cl)c(Cl)c2)C(=O)Nc2nc(-c3cn4ccnc4cn3)nc(N)c21 (stereo not drawn) [Example 138A, 4-amino-5-(3,4-dichlorophenyl)-2-(imidazo[1,2-a]pyrazin-6-yl)-5-methyl-5H-pyrrolo[2,3-d]pyrimidin-6(7H)-one]",,,,B (Category B=SBP in SHRs 20-40 mmHg),
117%,400 nM,"CC1(c2ccc(Cl)cc2)C(=O)Nc2nc(-c3cn4ccnc4cn3)nc(N)c21 (stereo not drawn) [Example 144A, 4-amino-5-(4-chlorophenyl)-2-(imidazo[1,2-a]pyrazin-6-yl)-5-methyl-5H-pyrrolo[2,3-d]pyrimidin-6(7H)-one]",,,B (Category B=SBP in SHRs 20-40 mmHg),,
127%,2180 nM,"Nc1nc(-c2cn3ccnc3c(CCC(F)(F)F)n2)nc2c1C(c1ccc(F)c(F)c1)(C1CC1)C(=O)N2 (stereo not drawn) [Example 318A, 4-amino-5-cyclopropyl-5-(3,4-difluorophenyl)-2-(8-(3,3,3-trifluoropropyl)imidazo[1,2-a]pyrazin-6-yl)-5H-pyrrolo[2,3-d]pyrimidin-6(7H)-one]",,,,,A (Category A=SBP in SHRs<20 mmHg)
154%,304 nM,"CC1(c2ccccc2)C(=O)Nc2nc(-c3cn4ccnc4c(CCC(F)(F)F)n3)nc(N)c21 (stereo not drawn) [Example 188B, 4-amino-5-methyl-5-phenyl-2-(8-(3,3,3-trifluoropropyl)imidazo[1,2-a]pyrazin-6-yl)-5H-pyrrolo[2,3-d]pyrimidin-6(7H)-one]",,,,B (Category B=SBP in SHRs 20-40 mmHg),
112%,236 nM,"CC1(c2ccc(F)c(F)c2)C(=O)Nc2nc(-c3cn4ccnc4cn3)nc(N)c21 (stereo not drawn) [Example 141B, 4-amino-5-(3,4-difluorophenyl)-2-(imidazo[1,2-a]pyrazin-6-yl)-5-methyl-5H-pyrrolo[2,3-d]pyrimidin-6(7H)-one]",,,,B (Category B=SBP in SHRs 20-40 mmHg),
112%,492 nM,"Nc1nc(-c2cn3ccnc3c(CCC(F)(F)F)n2)nc2c1C(c1ccc(Cl)cc1)(C1CC1)C(=O)N2 (stereo not drawn) [Example 198B, 4-amino-5-(4-chlorophenyl)-5-cyclopropyl-2-(8-(3,3,3-trifluoropropyl)imidazo[1,2-a]pyrazin-6-yl)-5H-pyrrolo[2,3-d]pyrimidin-6(7H)-one]",,,B (Category B=SBP in SHRs 20-40 mmHg),,
132%,65 nM,CCCCc1nc(-c2nc(N)c3c(n2)NC(=O)C3(c2ccc(OC(F)(F)F)cc2)C2CC2)cn2ccnc12 (stereo not drawn) [Example 346A],,,B (Category B=SBP in SHRs 20-40 mmHg),,
91%,870 nM,"CC1(c2ccc(F)cn2)C(=O)Nc2nc(-c3cn4ccnc4c(CCC(F)(F)F)n3)nc(N)c21 (stereo not drawn) [Example 202B, 4-amino-5-(5-fluoropyridin-2-yl)-5-methyl-2-(8-(3,3,3-trifluoropropyl)imidazo[1,2-a]pyrazin-6-yl)-5H-pyrrolo[2,3-d]pyrimidin-6(7H)-one]",,,,B (Category B=SBP in SHRs 20-40 mmHg),
104%,132 nM,"Cc1nnc(C2(C3CC3)C(=O)Nc3nc(-c4cn5ccnc5c(CCC(F)(F)C(F)(F)F)n4)nc(N)c32)s1 (stereo not drawn) [Example 53A, 4-amino-5-cyclopropyl-5-(5-methyl-1,3,4-thiadiazol-2-yl)-2-(8-(3,3,4,4,4-pentafluorobutyl)imidazo[1,2-a]pyrazin-6-yl)-5H-pyrrolo[2,3-d]pyrimidin-6(7H)-one]",,,,C (Category C=SBP in SHRs>40 mmHg),
